Results taken from article PMC10144242, “Design, Synthesis, In Vitro, and In Silico Insights of 5-(Substituted benzylidene)-2-phenylthiazol-4(5H)-one Derivatives: A Novel Class of Anti-Melanogenic Compounds” (Molecules, 2023).

How the values were obtained:
mushroom tyrosinase [1] = target: T1, mushroom tyrosinase (Agaricus bisporus, UniProt C7FF04); experiment: Inhibition assay against mushroom tyrosinase (L-tyrosine substrate); assay type: biochemical
Target sequence in this assay (C7FF04 1-392): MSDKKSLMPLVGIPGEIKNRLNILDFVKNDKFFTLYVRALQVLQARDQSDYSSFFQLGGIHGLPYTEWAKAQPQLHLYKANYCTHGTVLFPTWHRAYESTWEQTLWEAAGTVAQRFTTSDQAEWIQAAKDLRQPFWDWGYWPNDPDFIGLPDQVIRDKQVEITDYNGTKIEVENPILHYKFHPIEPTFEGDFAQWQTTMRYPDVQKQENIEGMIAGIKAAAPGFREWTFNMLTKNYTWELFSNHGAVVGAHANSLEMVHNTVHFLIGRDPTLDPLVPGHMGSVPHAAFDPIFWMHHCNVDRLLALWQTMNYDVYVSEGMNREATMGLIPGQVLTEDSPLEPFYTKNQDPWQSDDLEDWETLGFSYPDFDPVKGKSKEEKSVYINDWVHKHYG
Procedure: Therefore, the inhibitory effect of 14 synthetic (Z)-BPT derivatives on mushroom tyrosinase was investigated according to a previously described procedure [39].
Tyrosinase inhibition experiments were performed independently in triplicates. […] The IC50 values are presented as the mean ± standard error of the mean (SEM).
Minor modifications were made to the previous description of the inhibitory activity of mushroom tyrosinase [39]. […] After 30 min incubation at 37 °C, the amount of dopachrome produced in the assay mixture was measured at 492 nm using a microplate reader (VersaMax^TM, Molecular Devices, Sunnyvale, CA, USA) for determining the remaining tyrosinase activity. To obtain the IC50 values for each test sample, dose-dependent inhibition studies were performed in triplicates using three to five different concentrations of each test sample.

B16F10 cells = experiment: Cell viability / cytotoxicity, EZ-Cytox assay; assay type: cell-based, murine
Procedure: Before investigating their inhibitory effects on B16F10 cells, the viability of (Z)-BPT derivatives 1–3 was examined in B16F10 cells.
To determine the cell viability, six different concentrations (0, 1, 2, 5, 10, and 20 µM) of (Z)-BPT derivatives 1–3 were used, and the results were examined at two time points (48 and 72 h). […] Based on the cell viability results, the concentrations for cell-based assays related to the melanin production level and cellular tyrosinase activity were determined.
Cytotoxicity studies of (Z)-BPT derivatives 1–3 were performed on B16F10 melanoma cells using the previously established EZ-Cytox (EZ-3000, DoGenBio, Seoul, Republic of Korea) test, and cytotoxicity studies of (Z)-BPT derivatives 1–3 were conducted on B16F10 melanoma cells. Briefly, B16F10 cells were seeded in a 96-well plate at a density of 1 × 10^4 cells/well and cultivated at 37 °C for 24 h in a humid environment with 5% CO2. […] The cells were then incubated at 37 °C for 2 h after 10 µL of the EZ-Cytox solution had been added to each well. To determine the cell viability, the absorbance of each well was measured at 450 nm using a microplate reader (VersaMax^TM, Molecular Devices, Sunnyvale, CA, USA). Each assay was performed in triplicates.
Figure 6 Effects of (Z)-BPT derivatives 1–3 on cell viability in B16F10 cells. Cytotoxic effects were measured using an EZ-Cytox assay at six different concentrations (0, 1, 2, 5, 10, and 20 µM) of 1–3. (A) Derivative 1; (B) Derivative 2; (C) Derivative 3. *** p < 0.001 for non-treated cells vs. cells treated with 3.

[2] = DPPH radical scavenging assay; settings: 1 mM, 30 min in the dark
Procedure: The 2,2-diphenyl-1-picrylhydrazyl (DPPH) radical scavenging capacity of the (Z)-BPT derivatives (1 mM) was investigated using L-ascorbic acid (1 mM, vitamin C) as a positive control. […] L-Ascorbic acid scavenged 97.1% of the DPPH radical, whereas (Z)-BPT derivative 1 with a 4-hydroxyl substituent on the β-phenyl ring scavenged 46.5% of the DPPH radical.
The antioxidant properties of (Z)-BPT derivatives 1–14 against DPPH (2,2-diphenyl-1-picrylhydrazyl) radicals were examined using a DPPH radical scavenging assay, as previously described with minor modifications. DPPH solution (180 µL, 0.2 mM) in methanol was mixed with a (Z)-BPT derivative solution (1–14, 20 µL, 10 mM) in dimethyl sulfoxide in each well of a 96-well plate, and the mixture was kept for 30 min in the dark at room temperature. The absorbance at 517 nm was measured using a VersaMax ™ microplate reader (Molecular Devices, Sunnyvale, CA, USA). The capacity of the derivatives to scavenge DPPH radicals was compared with that of L-ascorbic acid, which was used as the positive control. Each experiment was run independently in triplicates.
Figure 10 The radical scavenging effect of (Z)-BPT derivatives on DPPH. The DPPH radical scavenging activities of test samples (1 mM) were assayed after being left in the dark for 30 min. Distilled water and dimethyl sulfoxide (DMSO) were utilized as the solvents for the positive control L-ascorbic acid and the (Z)-BPT derivatives, respectively. Asterisks (***) represent a significant difference between L-ascorbic acid and the (Z)-BPT derivatives, and results are expressed as the mean ± standard error of three different experiments. *** p < 0.001.

mushroom tyrosinase [3] = target: T1, mushroom tyrosinase; experiment: Kinetic studies on mushroom tyrosinase inhibition (Lineweaver–Burk and Dixon plots, L-DOPA substrate); assay type: biochemical; parameters: purchased Sigma-Aldrich
Procedure: As depicted in Figure 2, the mechanisms of tyrosinase inhibition were analyzed using Lineweaver–Burk plots. […] Each of the four straight lines produced at each inhibitor concentration converged to a single point on the y-axis. […] In contrast, in derivative 3, four straight lines generated at each inhibitor concentration intersected at a point in the second quadrant. According to the Lineweaver–Burk plot, as the inhibitor concentration increased, the Vmax value of 3 decreased, but the KM value increased.
To determine the Ki (inhibition constant) values of (Z)-BPT derivatives 1–3, Lineweaver–Burk plots for 1–3 were transformed into the corresponding Dixon plots (Figure 3). Each Dixon plot obtained from each Lineweaver–Burk plot produced four straight lines that intersected at one point in the second quadrant. The vertical lines from the merge point to the x-axis provide the Ki value of each (Z)-BPT derivative.
To determine the mode of action, Lineweaver–Burk plots of (Z)-BPT derivatives 1–3 were acquired. In brief, 10 µL of (Z)-BPT derivatives 1–3 (final concentrations:0, 3, 6, or 12 µM for 1; 0, 0.05, 0.1, or 0.2 µM for 2; 0, 2.5, 5, or 10 µM for 3) was added to a 96-well plate containing a substrate mixture (170 µL) consisting of an aqueous solution of L-dopa at final concentrations of 0.5, 1.0, 2.0, or 4.0 mM and 14.7 mM potassium phosphate buffer (pH 6.5), and a mushroom tyrosinase aqueous solution (20 µL, 20 units). Using a microplate reader (VersaMax^TM, Molecular Devices, Sunnyvale, CA, USA) to measure the increase in absorbance at a wavelength of 492 nm (ΔOD492/min), the initial rate of dopachrome synthesis in the reaction mixture was estimated. Using five different concentrations of L-dopa, Lineweaver–Burk plots (inverse of the response rate (1/V) vs. inverse of L-dopa concentration (1/(S)) were created. The convergence points of the four plot lines were used to define the mode of action of tyrosinase inhibition.
Figure 2 Lineweaver–Burk plots for the inhibition of mushroom tyrosinase activity by (Z)-BPT derivatives 1–3. […] Three independent experiments with five different concentrations (0.5, 1, 2, 4, and 8 mM) of an L-DOPA substrate were used to measure the augmented dopachrome optical density per minute at 492 nm. The data are shown as mean values of 1/V (an inverse of that optical density per minute). The (Z)-BPT derivatives were used at concentrations of 0 (filled circles), 3 (unfilled circles), 6 (filled triangles), and 12 µM (unfilled triangles) for 1; 0 (filled circles), 0.05 (unfilled circles), 0.1 (filled triangles), and 0.2 µM (unfilled triangles) for 2; and 0 (filled circles), 2.5 (unfilled circles), 5 (filled triangles), and 10 µM (unfilled triangles) for 3. Each experiment was run independently in triplicates.
Figure 3 Dixon plots for the inhibition of mushroom tyrosinase activity by (Z)-BPT derivatives 1–3. The Ki values of (Z)-BPT derivatives 1–3 were obtained from the absolute values of the x-coordinate where four straight lines converged at one point. Three independent experiments with four different concentrations of (Z)-BPT derivatives were conducted to measure the augmented dopachrome optical density per minute at 492 nm. The data are shown as the mean values of 1/V (an inverse of that optical density per minute). The (Z)-BPT derivatives were used at concentrations of 0, 3, 6, and 12 µM for 1; 0, 0.05, 0.1, and 0.2 µM for 2; and 0, 2.5, 5, and 10 µM for 3. The experiments were performed at four different concentrations (0.5, 1, 2, and 4 mM) of L-DOPA. Each experiment was run independently in triplicates.
Target sequence in this assay (C7FF04 1-392 limits assumed): as the sequence (C7FF04 1-392) above

For `O=C1N=C(c2ccccc2)S/C1=C\c1ccccc1O` [Compound 7, (Z)-5-(2-Hydroxybenzylidene)-2-phenylthiazol-4(5H)-one], which “mushroom tyrosinase inhibitory activity (in words)” value (mushroom tyrosinase [1]) is on record?
The value was “did not exhibit mushroom tyrosinase inhibitory activity”.

With `O=C1N=C(c2ccccc2)S/C1=C\c1ccc(O)c(O)c1` [Compound 3, (Z)-5-(3,4-Dihydroxybenzylidene)-2-phenylthiazol-4(5H)-one] as the compound, how does the “concentrations showing cytotoxic effects” value (B16F10 cells; at 72 h (first statement of the sentence)) read?
Its value is at least 5 µM.

And the “concentrations showing cytotoxic effects” value (B16F10 cells; at 72 h (second statement of the sentence))?
Its value is at least 2 µM.

What about the “DPPH radical scavenging activity” value [2] of the same compound?
Its value is 96.2%.

And the Ki (mushroom tyrosinase [3]; Dixon plots, read-out: Ki (inhibition constant))?
Its Ki is 4.8 µM.

And the Inhibition type (mushroom tyrosinase [3]; Lineweaver–Burk plot)?
Its Inhibition type is “mixed-type inhibitor”.

For `COc1cc(/C=C2\SC(c3ccccc3)=NC2=O)cc(OC)c1O` [Compound 12, (Z)-5-(4-Hydroxy-3,5-dimethoxybenzylidene)-2-phenylthiazol-4(5H)-one], which “DPPH radical scavenging activity” value [2] is on record?
Its value is “moderate to strong DPPH radical scavenging activity”.

With `O=C1O[C@H]([C@@H](O)CO)C(O)=C1O` [L-Ascorbic acid, L-ascorbic acid, reference compound] as the compound, how does the “DPPH radical scavenging activity” value [2] read?
Its value is 97.1%.

Which “DPPH radical scavenging activity” value [2] does the source give for `O=C1N=C(c2ccccc2)S/C1=C\c1cc(Br)c(O)c(Br)c1` [Compound 14, (Z)-5-(3,5-Dibromo-4-hydroxybenzylidene)-2-phenylthiazol-4(5H)-one] here?
The value was 57.3%.

Which “DPPH radical scavenging activity” value [2] does the source give for `COc1ccc(/C=C2\SC(c3ccccc3)=NC2=O)cc1O` [Compound 6, (Z)-5-(3-Hydroxy-4-methoxybenzylidene)-2-phenylthiazol-4(5H)-one] here?
The value was 25.1%.

For `O=C1N=C(c2ccccc2)S/C1=C\c1ccc(O)c(Br)c1` [Compound 13, (Z)-5-(3-Bromo-4-hydroxybenzylidene)-2-phenylthiazol-4(5H)-one], which “DPPH radical scavenging activity” value [2] is on record?
The value was 14.8%.

Which “DPPH radical scavenging activity” value [2] does the source give for `CCOc1cc(/C=C2\SC(c3ccccc3)=NC2=O)ccc1O` [Compound 5, (Z)-5-(3-Ethoxy-4-hydroxybenzylidene)-2-phenylthiazol-4(5H)-one] here?
The value was 58.0%.

With `COc1cc(/C=C2\SC(c3ccccc3)=NC2=O)ccc1O` [Compound 4, (Z)-5-(4-Hydroxy-3-methoxybenzylidene)-2-phenylthiazol-4(5H)-one] as the compound, how does the “DPPH radical scavenging activity” value [2] read?
The value was 81.0%.
